Source: PMC4669708 (Cell Death & Disease, 2015)

Assays:
Assay in all cases: c-ponatinib pulldown LC-MS/MS
Type in all cases: binding
[1] = molecular target: UNC119 (Homo sapiens, UniProt Q13432)
Procedure, shortened: (§1)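 Spectral counts and search-engine scores from LC-MS/MS of tryptic eluates gave drug-protein specificity P-values. Eluates came from duplicate pulldowns of 10 mg lysate on 25 nmol immobilized c-ponatinib. Competition was the ratio of median counts with versus without free compound.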

[2] = molecular target: T1, PLEKHF2 (Homo sapiens, UniProt Q9H8W4)
T1 sequence (Q9H8W4 1-249): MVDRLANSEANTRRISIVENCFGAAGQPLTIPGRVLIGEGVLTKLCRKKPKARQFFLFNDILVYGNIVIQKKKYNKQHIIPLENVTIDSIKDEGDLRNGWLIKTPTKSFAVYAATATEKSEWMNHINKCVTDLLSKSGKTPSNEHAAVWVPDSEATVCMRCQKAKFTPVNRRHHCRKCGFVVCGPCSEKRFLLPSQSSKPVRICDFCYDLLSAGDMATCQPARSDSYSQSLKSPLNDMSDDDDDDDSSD
Procedure, shortened: as §1

[3] = molecular target: RIPK3 (Homo sapiens, UniProt Q9Y572)
RIPK3, sequence (Q9Y572 whole entry): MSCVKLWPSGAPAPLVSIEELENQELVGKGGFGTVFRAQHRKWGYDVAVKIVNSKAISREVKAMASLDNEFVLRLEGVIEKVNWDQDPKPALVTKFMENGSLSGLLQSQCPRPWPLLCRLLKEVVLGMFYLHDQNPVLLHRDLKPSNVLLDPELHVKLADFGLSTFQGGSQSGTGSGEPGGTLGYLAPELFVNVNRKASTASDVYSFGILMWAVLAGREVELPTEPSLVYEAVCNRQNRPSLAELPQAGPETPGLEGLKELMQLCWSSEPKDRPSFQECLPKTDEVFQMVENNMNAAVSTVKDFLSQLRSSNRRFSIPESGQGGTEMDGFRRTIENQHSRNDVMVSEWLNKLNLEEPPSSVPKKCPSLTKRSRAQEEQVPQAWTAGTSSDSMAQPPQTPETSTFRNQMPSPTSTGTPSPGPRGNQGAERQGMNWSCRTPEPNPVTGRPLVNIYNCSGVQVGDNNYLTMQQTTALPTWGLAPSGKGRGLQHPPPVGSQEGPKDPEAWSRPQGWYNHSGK
Procedure, shortened: as §1

[4] = molecular target: T2, MLKL (Homo sapiens, UniProt Q8NB16)
T2 sequence (Q8NB16 1-471): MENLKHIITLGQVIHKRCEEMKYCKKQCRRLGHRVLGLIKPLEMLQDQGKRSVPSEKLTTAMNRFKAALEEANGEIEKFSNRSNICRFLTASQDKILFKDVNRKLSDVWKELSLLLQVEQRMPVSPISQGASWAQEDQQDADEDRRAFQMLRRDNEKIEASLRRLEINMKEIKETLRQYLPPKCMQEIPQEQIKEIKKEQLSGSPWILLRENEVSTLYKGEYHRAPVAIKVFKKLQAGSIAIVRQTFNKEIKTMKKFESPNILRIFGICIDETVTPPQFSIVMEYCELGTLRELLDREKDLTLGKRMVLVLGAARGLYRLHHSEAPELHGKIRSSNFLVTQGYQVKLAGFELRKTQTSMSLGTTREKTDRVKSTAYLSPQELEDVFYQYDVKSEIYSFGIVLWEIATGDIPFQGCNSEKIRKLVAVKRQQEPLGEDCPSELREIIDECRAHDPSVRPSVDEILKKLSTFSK
Procedure, shortened: as §1

[5] = molecular target: CSK (Homo sapiens, UniProt P41240)
CSK, sequence (P41240 whole entry): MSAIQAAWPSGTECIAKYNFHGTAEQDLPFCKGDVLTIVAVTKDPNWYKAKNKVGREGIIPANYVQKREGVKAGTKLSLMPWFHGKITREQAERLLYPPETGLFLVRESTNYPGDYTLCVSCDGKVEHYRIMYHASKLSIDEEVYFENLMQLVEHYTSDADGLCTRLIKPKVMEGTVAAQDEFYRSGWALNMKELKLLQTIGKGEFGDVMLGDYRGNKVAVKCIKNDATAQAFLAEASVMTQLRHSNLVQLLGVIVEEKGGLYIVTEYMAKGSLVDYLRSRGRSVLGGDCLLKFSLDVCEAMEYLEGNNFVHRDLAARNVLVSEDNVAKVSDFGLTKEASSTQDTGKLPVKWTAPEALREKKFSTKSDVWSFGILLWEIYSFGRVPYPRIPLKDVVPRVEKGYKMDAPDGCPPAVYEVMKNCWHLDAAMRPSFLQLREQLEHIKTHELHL
Procedure, shortened: as §1

[6] = molecular target: TYK2 (Homo sapiens, UniProt P29597)
TYK2, sequence (P29597 whole entry): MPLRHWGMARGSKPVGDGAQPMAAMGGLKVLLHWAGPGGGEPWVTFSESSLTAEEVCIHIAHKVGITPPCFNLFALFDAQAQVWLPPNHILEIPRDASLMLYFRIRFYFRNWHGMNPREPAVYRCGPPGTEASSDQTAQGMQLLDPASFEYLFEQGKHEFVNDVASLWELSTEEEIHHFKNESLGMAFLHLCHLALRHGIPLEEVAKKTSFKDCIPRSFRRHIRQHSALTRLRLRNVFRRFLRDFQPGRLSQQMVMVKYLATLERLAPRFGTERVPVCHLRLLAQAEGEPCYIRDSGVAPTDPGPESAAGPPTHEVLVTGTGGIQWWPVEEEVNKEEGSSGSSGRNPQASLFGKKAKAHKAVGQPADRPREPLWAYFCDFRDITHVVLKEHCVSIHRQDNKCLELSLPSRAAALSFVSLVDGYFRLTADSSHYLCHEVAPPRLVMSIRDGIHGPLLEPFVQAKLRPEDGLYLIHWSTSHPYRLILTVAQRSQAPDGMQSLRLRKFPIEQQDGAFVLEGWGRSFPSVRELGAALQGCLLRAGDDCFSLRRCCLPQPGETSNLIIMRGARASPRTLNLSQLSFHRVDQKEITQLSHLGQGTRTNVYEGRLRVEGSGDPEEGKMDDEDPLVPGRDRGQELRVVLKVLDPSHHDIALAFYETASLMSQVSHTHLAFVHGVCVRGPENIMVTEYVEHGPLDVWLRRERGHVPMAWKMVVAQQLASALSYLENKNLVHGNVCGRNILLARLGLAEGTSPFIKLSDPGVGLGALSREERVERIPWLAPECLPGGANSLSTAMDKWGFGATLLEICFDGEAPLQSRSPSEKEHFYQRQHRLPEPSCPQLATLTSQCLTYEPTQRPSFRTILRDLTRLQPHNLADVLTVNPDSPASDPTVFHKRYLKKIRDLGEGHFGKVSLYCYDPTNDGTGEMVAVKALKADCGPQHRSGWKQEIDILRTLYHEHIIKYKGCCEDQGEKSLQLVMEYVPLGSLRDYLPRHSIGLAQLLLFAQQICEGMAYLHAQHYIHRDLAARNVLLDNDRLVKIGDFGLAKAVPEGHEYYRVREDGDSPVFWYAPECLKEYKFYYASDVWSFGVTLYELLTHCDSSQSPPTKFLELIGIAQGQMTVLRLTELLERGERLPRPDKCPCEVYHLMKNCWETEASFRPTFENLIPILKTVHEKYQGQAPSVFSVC
Procedure, shortened: as §1

[7] = molecular target: T3, YWHAG (Homo sapiens, UniProt P61981)
T3 sequence (P61981 1-247): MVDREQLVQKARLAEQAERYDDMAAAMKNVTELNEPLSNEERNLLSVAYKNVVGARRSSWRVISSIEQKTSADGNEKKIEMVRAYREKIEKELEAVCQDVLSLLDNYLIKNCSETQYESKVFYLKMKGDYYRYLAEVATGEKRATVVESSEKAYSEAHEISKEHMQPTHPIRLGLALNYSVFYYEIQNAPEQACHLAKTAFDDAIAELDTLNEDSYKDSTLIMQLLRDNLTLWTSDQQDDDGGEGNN
Procedure, shortened: as §1

Cc1ccc(C(=O)Nc2ccc(CN3CCN(CCCN)CC3)c(C(F)(F)F)c2)cc1C#Cc1cnc2cccnn12 [c-ponatinib]
Av. SC comp. ([1]; + free ponatinib): 0 | Total SC comp. ([1]; + free ponatinib): 0 | Av. SC ([1]; no competitor): 20.5 | Total SC ([1]; no competitor): 82 | Av. SC comp. ([2]; + free ponatinib): 0 | Total SC comp. ([2]; + free ponatinib): 0 | Av. SC ([2]; no competitor): 8.25 | Total SC ([2]; no competitor): 33 | Av. SC comp. ([3]; + free ponatinib): 0 | Total SC comp. ([3]; + free ponatinib): 0 | Av. SC ([3]; no competitor): 17 | Total SC ([3]; no competitor): 68 | Av. SC comp. ([4]; + free ponatinib): 0 | Total SC comp. ([4]; + free ponatinib): 0 | Av. SC ([4]; no competitor): 5 | Total SC ([4]; no competitor): 20 | Av. SC comp. ([5]; + free ponatinib): 4.5 | Total SC comp. ([5]; + free ponatinib): 18 | Av. SC ([5]; no competitor): 52.25 | Total SC ([5]; no competitor): 209 | Av. SC comp. ([6]; + free ponatinib): 0 | Total SC comp. ([6]; + free ponatinib): 0 | Av. SC ([6]; no competitor): 14 | Total SC ([6]; no competitor): 56 | Av. SC comp. ([7]; + free ponatinib): 3.25 | Total SC comp. ([7]; + free ponatinib): 13 | Av. SC ([7]; no competitor): 11.25 | Total SC ([7]; no competitor): 45
